Experimental findings from article PMC8752738, “A propolis-derived small molecule ameliorates metabolic syndrome in obese mice by targeting the CREB/CRTC2 transcriptional complex” (Nature Communications, 2022) are described below.

The structures appear in SMILES notation. Values joined by “and” are separate entries in the source; they are usually repeats but may differ in a detail not shown here. Identical values can stand only once.

T1 sequence (P16220 whole entry): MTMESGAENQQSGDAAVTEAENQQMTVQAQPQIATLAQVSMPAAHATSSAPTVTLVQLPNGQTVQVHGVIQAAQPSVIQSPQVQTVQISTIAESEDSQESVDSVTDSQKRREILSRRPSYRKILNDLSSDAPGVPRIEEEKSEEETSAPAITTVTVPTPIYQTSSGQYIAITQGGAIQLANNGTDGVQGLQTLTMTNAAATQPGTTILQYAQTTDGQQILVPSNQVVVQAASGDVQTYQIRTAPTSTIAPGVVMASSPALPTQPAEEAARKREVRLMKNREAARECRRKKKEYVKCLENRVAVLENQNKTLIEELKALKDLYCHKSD

The first test has as its target T1, CREB-CRTC2 interaction (Homo sapiens, UniProt P16220).
T1 construct: expressed in transfected cells; host or cells: HEK293T
Briefly: CREB–CRTC2 mammalian two-hybrid assay (GAL4-Luc reporter). The class given is cell-based. The conditions noted are these: Figure 1f; CREB-CRTC2 two-hybrid assay; DMSO control about 100.
For the molecule `O=C(O)/C=C/c1ccc(O)cc1` [P1, (E)-p-coumaric acid], the “Relative Gal4-LUC activity, single replicates” value (“Relative Gal4-LUC activity” below) is 70.496 and 71.1658 and 69.3726. `CC(C)=CCc1cc(/C=C/C(=O)O)ccc1O` [P2, drupanin]: the “Relative Gal4-LUC activity” value was 61.0304 and 51.9945 and 58.5603.

In the case of `O=C(/C=C/c1ccc(O)cc1)OCc1ccccc1` [P5, (E)-p-coumaric acid benzyl ester], the “Relative Gal4-LUC activity” value is 49.3178 and 78.5049 and 35.7022. Take `CC(C)=CCc1cc(/C=C/C(=O)O)cc(C/C=C(\C)CO)c1O` [P7, capillartemisin A]: the “Relative Gal4-LUC activity” value is 126.493 and 128.204 and 133.801. Regarding `O=C(O)/C=C/c1ccc(O)c(O)c1` [P9, (E)-caffeic acid], the “Relative Gal4-LUC activity” value is 57.5791 and 77.7251 and 73.1602. On to `CCOC(=O)/C=C/c1ccc(O)c(O)c1` [P10, (E)-caffeic acid ethyl ester], for which the “Relative Gal4-LUC activity” value was 123.291 and 121.37 and 118.215. Take `CC1(C)C=Cc2cc(C=CC(=O)O)ccc2O1` [P11, 2,2-dimethylchromene-6-propenoic acid]: the “Relative Gal4-LUC activity” value is 49.0084 and 29.9945 and 36.8575. On the same count and under the same terms, to `O=c1c(O)c(-c2ccc(O)cc2)oc2cc(O)cc(O)c12` [P12, kaempferol] belongs 73.7017 and 114.823 and 172.832. Still for that read-out and setting: to `COc1ccc(-c2oc3cc(O)cc(O)c3c(=O)c2O)cc1` [P13, kaempferide] belongs 126.299 and 72.1957 and 55.4453; to `O=c1c(O)c(-c2ccc(O)c(O)c2)oc2cc(O)cc(O)c12` [P14, quercetin], 130.988 and 153.776 and 136.769. In the case of `COc1c(O)cc2oc(-c3ccc(O)cc3)c(O)c(=O)c2c1O` [P15, 6-methoxykaempferol], the “Relative Gal4-LUC activity” value is 91.5539 and 105.994 and 143.876. As for `COc1ccc(-c2oc3cc(O)c(OC)c(O)c3c(=O)c2O)cc1` [P16, betuletol], the “Relative Gal4-LUC activity” value is 48.4823 and 30.8552 and 26.2372.

On to `COc1ccc(-c2oc3cc(O)c(O)c(O)c3c(=O)c2OC)cc1` [P17, 5,6,7,-trihydroxy-3,4′-dimethoxyflavone], for which the “Relative Gal4-LUC activity” value was 79.2706 and 131.512 and 110.674. As for `O=C1C[C@@H](c2ccccc2)Oc2cc(O)cc(O)c21` [P18, pinocembrin], the “Relative Gal4-LUC activity” value was 63.0454 and 51.143 and 49.1354.

`O=C1c2c(O)cc(O)cc2O[C@H](c2ccc(O)cc2)[C@H]1O` [P20, aromadendrin]: the “Relative Gal4-LUC activity” value is 126.871 and 59.3858 and 61.7309. Consider `COc1ccc(C2Oc3cc(O)cc(O)c3C(=O)C2O)cc1` (stereo not shown) [P21, dihydrokaempferide], for which the “Relative Gal4-LUC activity” value is 44.892 and 54.8815 and 50.4357.

Staying with this test, now noted: HEK293T, isolated compound 25 μM.
Turning to `O=C(O)/C=C/c1ccc(O)cc1` [P1, (E)-p-coumaric acid], the “reporter activity of CREB–CRTC2 two-hybrid assay” value (“reporter activity” below) is on record as “significantly inhibited”.

As to `CC(C)=CCc1cc(/C=C/C(=O)O)ccc1O` [P2, drupanin], the “reporter activity” value is “significantly inhibited”. In the case of `O=C(/C=C/c1ccc(O)cc1)OCc1ccccc1` [P5, (E)-p-coumaric acid benzyl ester], the “reporter activity” value is “significantly inhibited”.

Tested on in the next test: not listed separately
In words: Cholesterol, TG, NEFA and glycerol in serum and liver. The class given is in vivo, mouse. Also noted: liver NEFA, Mean 2 (group mean) / Plasma VLDL cholesterol in db/db mice (VLDL-C) / Plasma VLDL cholesterol in db/db mice, group mean / TC in liver_CT2KO (total cholesterol in the liver of CRTC2-KO) / TC in liver_WT (total cholesterol in the liver) / TC in liver_WT, mean / TC in liver_WT, Mean Diff. VEH vs. drug / TC in liver_CRTC2KO, mean / TC in liver_CRTC2KO, Mean Diff. VEH vs. drug: unit not given here. The settings on record: liver, CRTC2-KO mice, individual animals, Supp.fig.5d. The method, then:
Serum total cholesterol (TC), LDL cholesterol (LDL-C), and HDL cholesterol (HDL-C) levels were detected using commercial kits (Beihua, China), and serum VLDL protein was determined by ELISA (Jiancheng, China).
The plasma TG and NEFA levels were determined using corresponding kits from Beihua (China) and WAKO (Japan), respectively. The TG levels of liver and WAT were tested by TG kit (Applygene, China). The NEFA in the liver and WAT were extracted by chloroform–methanol and then subjected to NEFA assay (WAKO).
Turning to `CN(C)C(=N)NC(=N)N` [Met], the “TC in liver_CT2KO (total cholesterol in the liver of CRTC2-KO)” value is 69.3199 and 58.5752 and 53.7207 and 41.7006 and 49.9498 and 60.0658.

The test is the same for the next values; noted with them: liver, WT mice, individual animals, Supp.fig.5d.
As to `CN(C)C(=N)NC(=N)N` [Met], the “TC in liver_WT (total cholesterol in the liver)” value is 51.5785 and 54.6034 and 57.0386 and 53.1363 and 64.5936 and 53.9126.

In the next test the test system is tissue mRNA levels. In words: Quantitative PCR of tissue gene expression in treated mice. The class given is in vivo, mouse. The settings on record: CRTC2KO mice; Met 200mg/kg or APC-20. How it is done: Total RNA from cells and tissues was extracted by Trizol (Invitrogen) and reverse-transcribed into cDNA using the prime script RT reagent kit with gDNA eraser (Takara). The mRNA levels were determined using the SYBR-green PCR kit (Takara) with ABIPRISM 7900HT Sequence detector (ABI) according to the manufacturer’s protocol. The quantitative qPCR primers used in this work are listed in Supplementary Table 1. Ribosomal L32 mRNA levels were used as an internal control.
`CN(C)C(=N)NC(=N)N` [Met]: the “Mean Diff. (Veh. vs. treated; head of the quantity not shown, section just before Figure 7h)” value was -0.1815.

The same test, now with this note: Figure 7g right, Crtc2KO mice, Met 200mg/kg, single animals.
In the case of `CN(C)C(=N)NC(=N)N` [Met], the “Lxra mRNA level” value is 0.8758 and 0.8882 and 0.7033 and 0.8771 and 1.013.

The same test, now with this note: Figure 7g right, WT mice, Met 200mg/kg, single animals.
On to `CN(C)C(=N)NC(=N)N` [Met], for which the “Lxra mRNA level” value was 1.062 and 1.197 and 0.4513 and 1.258 and 0.814.

Staying with this test, now noted: WT mice; Met 200mg/kg or APC-20.
With `CN(C)C(=N)NC(=N)N` [Met], the “Mean Diff. (Veh. vs. treated; head of the quantity not shown, section just before Figure 7h)” value stood at 0.07313.
